Test results taken from US9745255B2, “Meta-substituted biphenyl peripherally restricted FAAH inhibitors” (The Regents of the University of California, priority 2011, dated 2017).
Read-outs that look alike come from different tables or passages of the source.

Experiments:
FAAH [1] = target: T1, FAAH (Mus musculus, UniProt O08914); assay: Ex vivo FAAH activity in liver and brain tissue extracts after i.p. administration to mice; design: from tissue; host or cells: mouse liver and brain, membrane fraction of tissue extracts; settings: for inhibition at 1 mg/kg: mouse, ip, Table 1, mice, 1 mg/kg intraperitoneal, killed 2 h after administration, ex vivo
T1 sequence (O08914 1-579): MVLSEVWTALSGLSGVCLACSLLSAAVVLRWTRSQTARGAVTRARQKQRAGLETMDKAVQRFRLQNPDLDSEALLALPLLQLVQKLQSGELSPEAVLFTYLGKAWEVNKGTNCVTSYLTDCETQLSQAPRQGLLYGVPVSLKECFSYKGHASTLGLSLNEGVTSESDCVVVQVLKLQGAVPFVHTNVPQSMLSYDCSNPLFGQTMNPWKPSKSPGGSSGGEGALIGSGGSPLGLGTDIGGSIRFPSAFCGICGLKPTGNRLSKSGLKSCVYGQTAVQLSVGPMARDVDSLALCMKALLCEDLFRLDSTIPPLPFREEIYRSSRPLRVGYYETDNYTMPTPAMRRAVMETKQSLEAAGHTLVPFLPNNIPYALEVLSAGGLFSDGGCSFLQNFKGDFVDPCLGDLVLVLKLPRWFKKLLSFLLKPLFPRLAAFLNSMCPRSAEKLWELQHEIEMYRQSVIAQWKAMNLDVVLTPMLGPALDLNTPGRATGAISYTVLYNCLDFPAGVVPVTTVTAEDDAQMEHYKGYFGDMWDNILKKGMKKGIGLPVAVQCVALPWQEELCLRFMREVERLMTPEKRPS
Experimental: (§1) Comparison of compounds according to the invention with other peripherally restricted FAAH inhibitors for their ability to inhibit FAAH in the periphery. […] In particular, (1) IC50 values were generated in vitro using a FAAH assay. […] Mice received a 1 mg/kg dose of each compound by the intraperitoneal route, and were killed 2 h after administration. Tissues were collected and FAAH activity was measured ex vivo in tissue extracts (membrane fraction) using the FAAH assay.

[2] = test system: carrageenan-induced hyperalgesia in male CD1 mice; assay: Carrageenan-induced thermal hyperalgesia; type: in vivo, mouse; settings: oral administration, p<0.001 vs. vehicle (FIG. 3)
Experimental: (§2) Peripheral inflammation was induced by intraplantar (i.pl.) injection of the polysaccharide λ-carrageenan (i.pl. 1% weight vol^−1 in sterile water, 20 μL) into the left hind paw of male CD1 mice.
(§3) Nocifensive responses were measured elicited by intraplantar injection of carrageenan in male CD1 mice (LoVerme, J., La Rana, G., Russo, R., Calignano, A., & Piomelli, D., The search for the palmitoylethanolamide receptor. Life Sci 77 (14), 1685-1698 (2005)).
(§4) Mechanical hyperalgesia was determined by measuring the latency in seconds to withdraw the paw away from a constant mechanical pressure exerted onto the dorsal surface. […] Withdrawal threshold was measured on the inflamed ipsilateral paw at different time points after oral drug administration. […] Thermal hyperalgesia was assessed as described (Hargreaves, K., Dubner, R., Brown, F., Flores, C., & Joris, J., A new and sensitive method for measuring thermal nociception in cutaneous hyperalgesia. Pain 32 (1), 77-88 (1988)), measuring the latency to withdraw the hindpaw from a focused beam of radiant heat (thermal intensity: infrared 3.0) applied to the plantar surface using a plantar test apparatus (Ugo Basile, Italy). […] Withdrawal latency was measured on the inflamed ipsilateral paw at different time points after oral drug administration. […]

[3] = test system: carrageenan-induced hyperalgesia in male CD1 mice; assay: Carrageenan-induced mechanical hyperalgesia; type: in vivo, mouse; settings: oral administration, p<0.001 vs. vehicle (FIG. 2)
Experimental: as §2, §3, §4

[4] = test system: carrageenan-induced edema in male CD1 mice; assay: Carrageenan-induced paw edema; type: in vivo, mouse; settings: oral administration, 10 and 30 mg/kg, vs. vehicle (FIG. 1)
Experimental: as §2
Paw edema was induced in mice by injection into the right hind paws of 50 μL, of sterile saline containing 1% λ-carrageenan. Paw volumes were measured using a plethysmometer (Ugo Basile, Milan, Italy). […] The increase in paw volume (mL) was evaluated as the difference between the paw volume measured at each time point and the basal paw volume measured immediately before carrageenan injection.

[5] = Brain entry after systemic administration in mice; type: in vivo, mouse; settings: inferred from Table 3
From the text: The activity of compounds of Formula I as peripherally restricted FAAH inhibitors was found based in part on the polarity of the p-hydroxyphenyl moiety.

FAAH [6] = target: T2, FAAH (Rattus norvegicus, UniProt P97612); assay: In vitro FAAH assay (IC50, Tables 1 and 2); type: biochemical
T2 construct: Wistar rats were typically used for the FAAH studies; from tissue; host or cells: Wistar rat
T2 sequence (P97612 1-579): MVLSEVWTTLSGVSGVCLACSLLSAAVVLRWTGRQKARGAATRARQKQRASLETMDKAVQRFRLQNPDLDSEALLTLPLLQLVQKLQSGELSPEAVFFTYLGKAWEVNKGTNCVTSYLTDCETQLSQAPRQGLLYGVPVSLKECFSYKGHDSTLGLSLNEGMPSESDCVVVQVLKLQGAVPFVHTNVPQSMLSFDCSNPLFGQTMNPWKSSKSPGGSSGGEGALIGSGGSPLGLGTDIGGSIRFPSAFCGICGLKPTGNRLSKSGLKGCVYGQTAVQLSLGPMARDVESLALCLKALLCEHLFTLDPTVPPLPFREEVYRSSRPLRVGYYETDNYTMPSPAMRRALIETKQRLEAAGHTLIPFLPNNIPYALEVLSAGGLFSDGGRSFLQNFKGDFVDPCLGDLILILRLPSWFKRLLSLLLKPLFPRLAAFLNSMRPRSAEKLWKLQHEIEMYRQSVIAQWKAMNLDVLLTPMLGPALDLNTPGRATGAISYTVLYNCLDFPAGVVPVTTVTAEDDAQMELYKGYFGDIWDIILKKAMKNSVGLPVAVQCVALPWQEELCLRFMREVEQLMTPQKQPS
Experimental: Male Swiss Webster and CD1 mice (Charles River, 20-30 g) were used. Mice were group-housed in standard cages at room temperature on a 12:12 h light:dark cycle with unlimited access to water and standard chow pellets. Wistar rats were typically used for the FAAH studies. All experiments met the National Institutes of Health guidelines for the care and use of laboratory animals, were approved by the Institutional Animal Care and Use Committee of the University of California, Irvine, and the University of Georgia, Athens, and were in compliance with the European Community Council Directive 86 (609) EEC and the experimental protocol was carried out in compliance with Italian regulations (DL 116/92).
as §1

FAAH [7] = target: T1, FAAH; assay: FAAH activity and anandamide levels outside the CNS; design: suppressed FAAH activity and increased anandamide levels outside the central nervous system (CNS); from tissue; host or cells: peripheral tissues of the dosed animal, not specified; settings: in vivo
From the text: Peripheral cannabinoid receptors exert a powerful inhibitory control over pain initiation, but the endogenous cannabinoid signal that normally engages this intrinsic analgesic mechanism is unknown.

[8] = test system: rodent models of inflammation and peripheral nerve injury; assay: Rodent models of inflammation and peripheral nerve injury (persistent pain); type: in vivo; settings: prevented by CB1 receptor blockade
From the text: (§5) Peripheral cannabinoid receptors exert a powerful inhibitory control over pain initiation, but the endogenous cannabinoid signal that normally engages this intrinsic analgesic mechanism is unknown. […] CB1 receptor blockade prevents these effects. […] Accordingly, relatively brain-impermeant FAAH inhibitors, which strengthen this gating mechanism, offer a new approach to pain therapy (see, U.S. Provisional Patent Application Ser. No. 61/368,500, filed on Jul. 28, 2010, which is incorporated herein by reference in its entirety for all purposes, and specifically with respect to methods of assaying FAAH inhibitors for their biological and pharmaceutical properties, and the pharmacological properties of peripherally restricted FAAH inhibitors in general).

[9] = Transport system mediated extrusion from brain; settings: in vivo
From the text: as §5

[10] = brain membrane fraction, read-out: FAAH inhibition in brain
[11] = liver membrane fraction, read-out: FAAH inhibition in liver

## NC(=O)c1cccc(-c2cc(O)cc(OC(=O)NC3CCCCC3)c2)c1 [Compound 1, [3-(3-carbamoylphenyl)-5-hydroxy-phenyl]N-cyclohexylcarbamate]
FAAH [1]; [10]
  inhibition at 1 mg/kg: -4.2 ± 2.5%
FAAH [1]; [11]
  inhibition at 1 mg/kg: 89.5 ± 1.1%
[2]
  withdrawal threshold on inflamed ipsilateral paw, thermal hyperalgesia test: increased
[3]
  withdrawal threshold on inflamed ipsilateral paw, mechanical hyperalgesia test: increased
[4]
  difference between paw volume at each time point and basal paw volume (carrageenan-induced edema): reduced

## NC(=O)c1cccc(-c2cc(OC(=O)NC3CCCCC3)ccc2F)c1 [Compound 1e]
[5]
  entry into the brain after systemic administration: enter the brain

## CNC(=O)c1cccc(-c2cc(O)cc(OC(=O)NC3CCCCC3)c2)c1 [Compound 2, [3-hydroxy-5-[3-(methylcarbamoyl)phenyl]phenyl]N-cyclohexylcarbamate]
FAAH [1]; [10]
  inhibition at 1 mg/kg: -1.7 ± 0.2%
FAAH [1]; [11]
  inhibition at 1 mg/kg: 69.1 ± 3.5%
FAAH [6]; Table 1, in vitro FAAH assay
  IC50: 0.3 nM

## NC(=O)c1cccc(-c2cc(OC(=O)NC3CCCCC3)ccc2C(=O)O)c1 [ARN0715]
FAAH [1]; Table 2 (Example 5), brain
  FAAH inhibition in brain: −2.1 ± 0.5%
FAAH [1]; Table 2 (Example 5), liver
  FAAH inhibition in liver: 86.3 ± 1.3%
FAAH [6]; Table 2 (Example 5)
  IC50: 2100 nM

## Cc1ccc(OC(=O)NC2CCCCC2)cc1-c1cccc(C(N)=O)c1 [Compound 1d]
[5]
  entry into the brain after systemic administration: enter the brain

## COc1ccc(OC(=O)NC2CCCCC2)cc1-c1cccc(C(N)=O)c1 [Compound 1c]
[5]
  entry into the brain after systemic administration: enter the brain

## NC(=O)c1cccc(-c2cc(OC(=O)NC3CCCCC3)ccc2N)c1 [Compound 1f]
[5]
  entry into the brain after systemic administration: largely excluded

## NC(=O)c1cccc(-c2cc(OC(=O)NC3CCCCC3)ccc2O)c1 [URB937]
FAAH [7]
  FAAH activity outside the central nervous system (CNS): suppressed
  anandamide levels outside the central nervous system (CNS): increased
[8]
  noxious stimulus-evoked neuronal activation in spinal cord regions implicated in nociceptive processing: suppresses
[8]; rodent models of inflammation and peripheral nerve injury
  behavioral responses indicative of persistent pain: attenuated
[9]
  susceptibility to transport system mediated extrusion from brain: surprisingly susceptible
